Data taken from US20040122058A1, “Use of specific compounds particularly kinase inhibitors for treating viral infections” (priority 2001, published 2004).

Assays:
[1] = test system: Ebola (EBO) virus infected peripheral blood mononuclear cells (PBMC); assay type: cell-based, human
[2] = test system: bacterial LPS-induced TNF-α release; assay type: cell-based, human
[3] = test system: Ebola virus induced TNF-α release in primary human macrophages; assay type: cell-based
[4] = test system: Marburg virus induced TNF-α release in primary human macrophages; assay type: cell-based
[5] = test system: Marburg (MBG) virus infected peripheral blood mononuclear cells (PBMC); assay type: cell-based, human
[6] = test system: IL-1 beta release of Ebola virus infected VeroE6 cells
[7] = test system: Ebola virus
[8] = test system: IL-1 beta release of Marburg virus infected VeroE6 cells
[9] = test system: Marburg virus

Row | SMILES | TNF-α release [1] | bacterial LPS-induced TNF-α production [2] | bacterial LPS-induced TNF-α release [2] | Ebola virus induced TNFα production [3] | virally induced TNF-α release [3] | Marburg virus induced TNFα production [4] | virally induced TNF-α release [4] | TNF-α release [5] | release of IL-1 beta to the supernatant [6] | replication of Ebola virus (plaques) [7] | release of IL-1 beta to the supernatant [8] | replication of Marburg virus (plaques) [9] | Ebola virus induced TNF-α release/production [3] | Marburg virus induced TNF-α release/production [4]
1 | COc1cccc(-c2cc(=O)c3ccccc3o2)c1N [Compound 1, 2′-amino-3′-methoxyflavone] | dose-dependent inhibitory effect | no inhibitory effect at all | did not reduce | inhibited very strongly and dose-dependently | inhibitory effects | inhibited very strongly and dose-dependently | inhibitory effects | dose-dependent inhibitory effect | – | – | – | – | – | –
2 | O=C(NOCC1CC1)c1ccc(F)c(F)c1Nc1ccc(I)cc1Cl [Compound 2, 2-(2-chloro-4-iodophenylamino)-N-cyclopropylmethoxy-3,4-difluorobenzamide] | inhibitory effect | no inhibitory effect at all | did not reduce | inhibited very strongly and dose-dependently | inhibitory effects | inhibited very strongly and dose-dependently | inhibitory effects | inhibitory effect | – | – | – | – | – | –
3 | N#CC(=C(N)Sc1ccccc1N)C(C#N)=C(N)Sc1ccccc1N [Compound 3, 1,4-diamino-2,3-dicyano-1,4-bis(2-aminophenylthio)butadiene] | dose-dependent inhibitory effect | no inhibitory effect at all | did not reduce | inhibited very strongly and dose-dependently | inhibitory effects | inhibited very strongly and dose-dependently | inhibitory effects | dose-dependent inhibitory effect | dramatically reduces | does not have an obvious effect | dramatically reduces | does not have an obvious effect | – | –
4 | Oc1ccc(-c2nc(-c3ccc(F)cc3)c(-c3ccncc3)[nH]2)cc1 [Compound 4] | – | no inhibitory effect at all | – | – | – | – | – | – | – | – | – | – | did not significantly inhibit | did not significantly inhibit
